Measured values taken from paper PMC2567432 (PLoS ONE, 2008).

Columns and labels:
glyoxalase 1 (Glo1) = molecular target: T1, glyoxalase 1 (Glo1) (Homo sapiens, UniProt Q04760); experiment: Inhibition of purified glyoxalase 1 activity (Dixon plot); type: biochemical; settings: Dixon plot / model fit
T1 construct: Glo1 was purified from human erythrocytes as described earlier; from tissue; host or cells: human erythrocytes
T1 sequence (Q04760 2-184 limits assumed): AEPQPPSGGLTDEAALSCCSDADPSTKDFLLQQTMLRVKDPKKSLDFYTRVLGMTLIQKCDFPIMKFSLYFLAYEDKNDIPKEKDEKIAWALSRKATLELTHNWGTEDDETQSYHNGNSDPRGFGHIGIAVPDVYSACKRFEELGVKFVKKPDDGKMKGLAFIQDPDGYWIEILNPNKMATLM
Protocol: Purified Glo1 (70 mU) was incubated with increasing concentrations of different polyphenols at three substrate concentrations; and enzyme activity was recorded (n = 3). The inhibitor concentration was plotted vs. the reciprocal of enzyme activity (1/v) in Dixon plots.
Glo1 was purified from human erythrocytes as described earlier. Briefly, erythrocytes were treated with butanol/chloroform to denature hemoglobin followed by acetone and ammonium sulphate fractionation.
The determination of Glo1 (E.C.4.4.1.5) activity has been described previously. […] The inhibition constant, Ki value of the inhibitors was evaluated by Dixon plot showing the reciprocal of enzyme velocity against the inhibitor concentration at variable concentrations of the substrate. Human Glo2 (E.C.3.1.2.6) was measured using the substrate S-lactoylglutathione as described earlier.
A goodness-of-fit criterion (Akaike's information criterion, AIC) was used for falsification of incompatible inhibition models. […] Spearman's rank correlation test was applied to evaluate the correlation between the IC50 values of pro-inflammatory cytokine release and the Ki-values of various polyphenols. Data were presented as means±S.D. of at least three independent experiments. […] In all other tests, significance has been considered at values of p<0.05.

[1] = test system: brain astrocytoma 1321N1 cells; experiment: Cell proliferation WST-1 assay, 1321N1; type: cell-based
Protocol: (§1) Figure 3 Growth inhibition of different tumor cell lines by polyphenols. […] Following 24-h incubation, cell proliferation was evaluated using the WST-1 assay.
(§2) Tumor cells were cultured in RPMI medium containing 10% fetal calf serum (RPMI-FCS) (PC-3, JIMT-1, MDA-MD 231) or in DMEM-FCS (astrocytoma 1321N1 cells) containing penicillin/streptomycin (100 U penicillin/ml; 100 µg streptomycin/ml) at 37°C/5% CO2. Cytosolic protein extracts of tumor cells were prepared using extraction buffer composed of 25 mM Tris, 2 mM EDTA, 10% Glycerol, 1% Triton ×100, 2 mM DTT, 1mM PMSF, pH. 7.0 containing 0.3% protease inhibitor cocktail. Protein content was determined according to Bradford. Specific activity of enzymes analyzed in cell extracts was expressed as U/mg protein.
(§3) Cell proliferation/vitality of tumor cells (96-well plates; 5000 cells/well) and primary human hepatocytes (24-well plates; 0.25×10^6 cells/well) was assayed using the WST-1 assay according to manufacturer's instructions. Trypan blue exclusion was performed by staining cells with 0.4% aqueous trypan blue solution according to the manufacturer's instructions.

[2] = test system: breast cancer JIMT-1 cells; experiment: Cell proliferation WST-1 assay, JIMT-1; type: cell-based, human
Protocol: as §1, §2, §3

1321N1 cells = experiment: Cell vitality by trypan blue exclusion; type: cell-based; settings: 50 µM, 6-h incubation; control 95.6%±2.5%
Description: (B) Cell vitality as assayed by the trypan blue exclusion test. Data represent the mean±S.D. of independent experiments (n = 6).

Glo1 in JIMT-1 cells = test system: T2, Glo1 in JIMT-1 cells; experiment: Specific Glo1 activity in cytosolic extract of treated cells; type: cell-based, human; settings: JIMT-1, 24 h
T2 construct: endogenous in cells; host or cells: JIMT-1 breast carcinoma cells (ACC 589; DSMZ)
Protocol: Cells were harvested and the specific activity of Glo1 and LDH was determined in the cytosolic extract. (B) Semi-quantitative analysis of protein content as performed by Western blot using specific antibodies against β-actin and Glo1. The blot was developed by chemoluminescense detection. […] Data represent the mean±S.D. of independent experiments (n = 6). Tumor cells were cultured in RPMI medium containing 10% fetal calf serum (RPMI-FCS) (PC-3, JIMT-1, MDA-MD 231) or in DMEM-FCS (astrocytoma 1321N1 cells) containing penicillin/streptomycin (100 U penicillin/ml; 100 µg streptomycin/ml) at 37°C/5% CO2. Cytosolic protein extracts of tumor cells were prepared using extraction buffer composed of 25 mM Tris, 2 mM EDTA, 10% Glycerol, 1% Triton ×100, 2 mM DTT, 1mM PMSF, pH. 7.0 containing 0.3% protease inhibitor cocktail. Protein content was determined according to Bradford. Specific activity of enzymes analyzed in cell extracts was expressed as U/mg protein. […] The inhibition constant, Ki value of the inhibitors was evaluated by Dixon plot showing the reciprocal of enzyme velocity against the inhibitor concentration at variable concentrations of the substrate. Human Glo2 (E.C.3.1.2.6) was measured using the substrate S-lactoylglutathione as described earlier.

LDH in JIMT-1 cells = experiment: LDH activity in cytosolic extract of treated cells; type: cell-based, human; settings: JIMT-1, 24 h
Protocol: Cells were harvested and the specific activity of Glo1 and LDH was determined in the cytosolic extract. (B) Semi-quantitative analysis of protein content as performed by Western blot using specific antibodies against β-actin and Glo1. The blot was developed by chemoluminescense detection. […] Data represent the mean±S.D. of independent experiments (n = 6).
LDH activity was spectrophotometrically assayed in the cytosolic extract or in the of cell cultures by adding aliquots to 1 ml reaction buffer (50 mM Na2HPO4, pH 7.0, 0.15 mM NADH, and 0.3 mM pyruvate). Enzyme activity was recorded at 340 nm.

JIMT-1 cells = experiment: Glutathione (GSH) level in cytosolic extract, JIMT-1; type: cell-based, human; settings: JIMT-1, 50 µM, 24 h
Protocol: Cells were harvested and GSH concentration was determined in the cytosolic extract. Data represent the mean±S.D. of independent experiments (n = 6).
GSH was determined using DTNB method. Briefly, cytosolic extract of tumor cells were precipitated by 5% sulfosalicylic acid neutralization, aliquots were mixed with DTNB and absorbance was read at 412 nm against a standard solution of GSH.

astrocytoma 1321N1 cells = experiment: Apoptosis/necrosis by annexin V-FITC/PI staining, flow cytometry; type: cell-based; settings: 24 h
Protocol: Apoptosis/necrosis was evaluated using annexin V-5-fluorescein isothiocyanate (FITC)/propidium iodine (PI) staining followed by flow cytometric analysis. […] The proportion of dead cells (a: annexin V-FITC^−/PI^+), late apoptotic/necrotic cells (b: annexin V-FITC^+/PI^+), non-apoptotic cells (c: annexin V-FITC^−/PI^−) and early apoptotic cells (d: annexin V-FITC^+/PI^−). (B) Results of 3 independent experiments. […] Data represent the mean±S.D. of three independent experiments.
Samples were analyzed by flow cytometry using a FACSCalibur and the CellQuest software (BD Biosciences, San Jose, USA). Laser excitation wavelength was set at 488 nm. The green signal from annexin V-FITC was measured at 525 nm and the red signal from PI was measured at 620 nm. Annexin V^−/PI^− cells are viable; annexin V^+/PI^− cells are in early apoptosis, whereas annexin V^+/PI^+ cells are necrotic or in late apoptosis are […]

COc1cc(C=CC(=O)CC(=O)C=Cc2ccc(O)c(OC)c2)ccc1O [curcumin, 1,7-bis(4-hydroxy-3-methoxyphenyl)-1,6-heptadiene-3,5-dione]
mode of enzyme inhibition (glyoxalase 1 (Glo1)): competitive
concentration giving strong anti-proliferative effects ([1]; 1321N1, 24 h, WST-1): above 50 µM
inhibition at 50 µM ([1]; Homo sapiens, 1321N1, 50 µM, 24 h): ~30%
inhibition at 50 µM ([2]; Homo sapiens, JIMT-1, 50 µM, 24 h): ~30%
concentration giving strong anti-proliferative effects ([2]; JIMT-1, 24 h, WST-1): above 50 µM
percentage of vital cells (trypan blue exclusion) (1321N1 cells): 89.5%±2.5%
specific Glo1 activity in treated cells (Glo1 in JIMT-1 cells): decreased dose-dependently
LDH activity in cytosolic extract (LDH in JIMT-1 cells): increased at higher curcumin concentrations
GSH diminished by (JIMT-1 cells): approximately 20%
early apoptotic cells (annexin V-FITC+/PI−) (astrocytoma 1321N1 cells; 10 µM): 11.0%
late apoptotic/necrotic cells (annexin V-FITC+/PI+) (astrocytoma 1321N1 cells; 50 µM): 98.2%
